Experimental data: BindingDB's records for doi:10.1021/acsmedchemlett.8b00379 (Bristol-Myers Squibb Research and Development, 2018)

Key:
[1] = Inhibition of HCV genotype 2a JFH1 NS5B RNA dependent RNA polymerase infected in human HuH7 replicon cells after 3 days by luciferase reporter gene assay
[2] = Inhibition of HCV genotype 1a NS5B RNA dependent RNA polymerase infected in human HuH7 replicon cells after 3 days by luciferase reporter gene assay
[3] = Inhibition of HCV genotype 1b NS5B RNA dependent RNA polymerase C316N mutant infected in human HuH7 replicon cells after 3 days by luciferase reporter gene assay
[4] = Inhibition of HCV genotype 1b NS5B RNA dependent RNA polymerase infected in human HuH7 replicon cells after 3 days by luciferase reporter gene assay

Row | Structure (SMILES) | EC50 [1] | EC50 [2] | EC50 [3] | EC50 [4]
1 | CCN(c1cc2oc(-c3ccc(F)cc3)c(C(=O)NC)c2cc1-c1cc(F)c(F)c(C(=O)NC2(c3ncccn3)CC2)c1)S(C)(=O)=O | 9 nM | – | – | –
2 | CCNc1cc2oc(-c3ccc(F)cc3)c(C(=O)NC)c2cc1-c1ccc(OC)c(C(=O)NC2(c3ncccn3)CC2)c1 | 12 nM | 2.3 nM | 3.6 nM | 1.2 nM
3 | CCN(c1cc2oc(-c3ccc(F)cc3)c(C(=O)NC)c2cc1-c1cc(Cl)c(OC)c(C(=O)NC2(c3ncccn3)CC2)c1)S(C)(=O)=O | 6.6 nM | – | – | –
4 | CNC(=O)c1c(-c2ccc(F)cc2)oc2ccc(-c3cccc(C(=O)NC4(c5ccccn5)CC4)c3)cc12 | 515 nM | 36 nM | 75 nM | 3.8 nM
5 | CCN(c1cc2oc(-c3ccc(F)cc3)c(C(=O)NC)c2cc1-c1cc(F)c(OC)c(C(=O)NC2(c3ncccn3)CC2)c1)S(C)(=O)=O | 8.8 nM | – | – | –
6 | CNC(=O)c1c(-c2ccc(F)cc2)oc2cc(N(CCO)S(C)(=O)=O)c(-c3cccc(C(=O)NC4(c5ccccc5)CC4)c3)cc12 | 8.6 nM | 5.7 nM | 64 nM | 6.2 nM
7 | CCN(c1cc2oc(-c3ccc(F)cc3)c(C(=O)NC)c2cc1-c1cccc(C(=O)NC2(c3ncccn3)CC2)c1)S(C)(=O)=O | 5.4 nM | 7.7 nM | 44 nM | 8.8 nM
8 | CNC(=O)c1c(-c2ccc(F)cc2)oc2cc(N(CCO)S(C)(=O)=O)c(-c3cccc(C(=O)NC4(c5ccccn5)CC4)c3)cc12 | 22 nM | 35 nM | 385 nM | 52 nM

Further lines, with some results ahead:

Row | EC50 [1] | Structure (SMILES) | EC50 [2] | EC50 [3] | EC50 [4]
9 | 165 nM | CCN(C(=O)N(C)C)c1cc2oc(-c3ccc(F)cc3)c(C(=O)NC)c2cc1-c1ccc(OC)c(C(=O)NC2(c3ncccn3)CC2)c1 | – | – | –
10 | 35 nM | CCN(C(C)=O)c1cc2oc(-c3ccc(F)cc3)c(C(=O)NC)c2cc1-c1ccc(OC)c(C(=O)NC2(c3ncccn3)CC2)c1 | – | – | –
11 | 15 nM | CCN(C(=O)OC)c1cc2oc(-c3ccc(F)cc3)c(C(=O)NC)c2cc1-c1ccc(OC)c(C(=O)NC2(c3ncccn3)CC2)c1 | – | – | –
12 | 16 nM | CCN(c1cc2oc(-c3ccc(F)cc3)c(C(=O)NC)c2cc1-c1cc(C)c(OC)c(C(=O)NC2(c3ncccn3)CC2)c1)S(C)(=O)=O | – | – | –
13 | 13 nM | CCN(c1cc2oc(-c3ccc(F)cc3)c(C(=O)NC)c2cc1-c1ccc(OC)c(C(=O)NC2(c3ncccn3)CC2)c1)S(C)(=O)=O | – | – | –
14 | 20 nM | CCN(C(=O)C(F)(F)F)c1cc2oc(-c3ccc(F)cc3)c(C(=O)NC)c2cc1-c1ccc(OC)c(C(=O)NC2(c3ncccn3)CC2)c1 | – | – | –
